The target of series [1] is T1, Autotaxin (Homo sapiens, UniProt Q13822). The series can be described thus: Inhibition of ATX (unknown origin) using bis-(p-nitrophenyl)phosphate as substrate.
Series [2] can be described thus: Lipophilicity, log D of compound at pH 7.4 by RP-HPLC analysis. The note with it: buffer. The class given is physicochemical.
Series [3] is described as follows: Kinetic solubility of compound in phosphate buffer at pH 7.4 for 1 hr. The format is physicochemical. The note with it: read-out: Kinetic_solubility.
A short description of series [4]: Permeability of compound across artificial membrane after 3 hrs by LC-MS analysis. The note with it: PAMPA; read-out: permeability. The class given is ADME. A general note: In PAMPA a lipid-coated filter parts donor from acceptor wells.
The subject of series [5] is PC-3. The series is described as follows: Inhibition of LPA-induced cell proliferation of human PC3 cells at 10 uM after 18 hrs by [3H]-thymidine incorporation assay. The class given is functional, cell-based. On the technique in general: Dividing cells build labelled thymidine or BrdU into new DNA.
Series [6] concerns A2780. The series is described as follows: Cytotoxicity against human A2780 cells at 30 uM after 42 hrs by alamar blue assay. The format is cell-based. The note with it: a2780, 42 h. (The colour change of resazurin is a common sign of viable cells or microbes.)
Series [7] concerns the target Lysophosphatidic acid receptor 1 (Homo sapiens) (UniProt Q92633). The series is described as follows: Antagonist activity at LPA1 receptor (unknown origin) expressed in CHO-K1 cells assessed as LPA-induced receptor activity measured as remaining receptor activity at 10 uM compound incubated for 1 hr followed by addition of LPA for 3 hrs by luminometry. The format is cell-based.

The target of series [8] is T1, Autotaxin. The series is described as follows: Inhibition of ATX (unknown origin) using bis-(p-nitrophenyl)phosphate as substrate at 30 uM.

≈ marks a conversion by molar mass, not a printed value. Calls of active or inactive are those of the source. No cut-off for these calls is given here.

In general, Ki refers to the equilibrium dissociation constant of an inhibitor or competing ligand from its target. The term logD denotes lipophilicity at a set pH, counting ionised and neutral species. A word on the inhibition: it is the drop in the measured response relative to a control, in per cent.

Lysophosphatidic acid receptor 1 (Homo sapiens), sequence (Q92633 whole entry): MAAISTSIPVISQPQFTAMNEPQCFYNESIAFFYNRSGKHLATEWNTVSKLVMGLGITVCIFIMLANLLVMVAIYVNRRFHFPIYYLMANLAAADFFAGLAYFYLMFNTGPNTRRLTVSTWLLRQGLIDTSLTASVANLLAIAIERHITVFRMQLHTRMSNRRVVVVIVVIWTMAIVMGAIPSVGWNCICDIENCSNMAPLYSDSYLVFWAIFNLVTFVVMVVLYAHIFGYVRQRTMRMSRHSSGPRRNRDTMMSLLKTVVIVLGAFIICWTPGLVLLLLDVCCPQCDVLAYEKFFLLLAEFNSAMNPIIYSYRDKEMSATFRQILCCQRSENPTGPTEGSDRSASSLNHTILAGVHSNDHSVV

Compound `O=C1CN(Cc2ccc(-c3ccccc3)cc2)C(=O)N1c1ccccc1` returned an inhibition constant Ki in series [1] of 1.3 µM. The compound further displayed a logD in series [2] of 6.24. Moreover, the solubility kinetic at 1 h in series [3] was 7.5 µg/mL (≈ 21.9 µM). Moreover, the Papp at 3 h in series [4] is 54 ×10⁻⁶ cm/s. Further, the inhibition entry in series [5] is “Active”. Besides, the Activity entry in series [6] is reported as “Non-toxic”.
Compound `O=C(O)Cc1cccc(-c2cccc(NC(=O)OCc3ccccc3)c2)c1` gave an inhibition constant Ki in series [1] of 3.5 µM. The logD in series [2] was 3.1. In addition, the solubility kinetic at 1 h in series [3] came to 221 µg/mL (≈ 612 µM). For the same compound, in series [4], the Papp at 3 h is 6.4 ×10⁻⁶ cm/s.
Turning to `O=C1CN(Cc2ccc(Br)cc2)C(=O)N1C1CCCCC1`, in series [1], the inhibition constant (Ki) is less than 5 µM.
As for `O=C(O)Cc1ccc(-c2ccc(N(C(=O)OCc3ccccc3)C3CCCCC3)cc2)cc1`, the Ki in series [1] worked out at 2 µM. In series [2], this compound came in with a logD of 4.92. Besides, the solubility kinetic at 1 h in series [3] stood at 189 µg/mL (≈ 426 µM). For the same compound, the Papp at 3 h in series [4] amounted to 15 ×10⁻⁶ cm/s. Besides, the inhibition result in series [5] was “Active”. In addition, in series [6], the Activity result is recorded as “Non-toxic”.
In series [1], `O=C(O)Cc1ccc(-c2ccc(CN3CC(=O)N(C4CCCCC4)C3=O)cc2)cc1` displayed a Ki of 1.8 µM. In series [2], this compound registered a logD of 1.12. For the same compound, the solubility kinetic at 1 h in series [3] came out at 186 µg/mL (≈ 456 µM). Besides, the Papp at 3 h in series [4] is 2.2 ×10⁻⁶ cm/s.
`O=C(Cc1ccc(-c2ccc3cc[nH]c3c2)cc1)OCc1ccccc1`: the Ki in series [1] was more than 30 µM. The same compound returned a pH-dependent lipophilicity (logD) in series [2] of 7.43. Further, in series [3], the solubility kinetic at 1 h is 110 µg/mL (≈ 322 µM). The Papp at 3 h in series [4] was 51 ×10⁻⁶ cm/s.
Take `CC(C)N1C(=O)CN(Cc2ccc(-c3ccc(CC(=O)O)cc3)cc2)C1=O`: the inhibition constant (Ki) in series [1] was determined as 1.2 µM. The log distribution coefficient (logD) in series [2] worked out at 1.1. Besides, the solubility kinetic at 1 h in series [3] was 190 µg/mL (≈ 519 µM). Besides, the Papp at 3 h in series [4] worked out at 0.3 ×10⁻⁶ cm/s.
`Brc1ccc(NC2CCOCC2)cc1`: the Ki in series [1] was less than 5 µM.
As for `Cc1noc(-c2ccc(-c3ccc(CC(=O)O)cc3)cc2)c1NC(=O)O[C@H](C)c1ccccc1`, the Activity in series [7] was 11%. For the same compound, the inhibition in series [8] was less than 20%.
In series [1], `O=C(O)Cc1ccc(-c2cccc(NC(=O)OCc3ccccc3)c2)cc1` gave an inhibition constant (Ki) of 4.5 µM. Moreover, the logD in series [2] was determined as 3.19. Besides, in series [3], the solubility kinetic at 1 h came out at 198 µg/mL (≈ 548 µM). The Papp at 3 h in series [4] stood at 7.3 ×10⁻⁶ cm/s. Also, the inhibition result in series [5] is “Active”. Moreover, the Activity result in series [6] is “Non-toxic”.
In series [1], `O=C(O)Cc1ccccc1-c1cccc(NC(=O)OCc2ccccc2)c1` returned a Ki of 4 µM. Further, the log distribution coefficient (logD) in series [2] amounted to 3.06. Also, the solubility kinetic at 1 h in series [3] was 287 µg/mL (≈ 794 µM). In addition, the Papp at 3 h in series [4] is 14 ×10⁻⁶ cm/s.
In series [1], `O=C(O)Cc1ccc(-c2ccc(CN3CC(=O)N(C4CCCCC4)C3=O)nc2)cc1` registered a Ki of 3.9 µM. The compound further showed a logD in series [2] of -0.35. Further, in series [3], the solubility kinetic at 1 h is 93 µg/mL (≈ 228 µM). Moreover, the Papp at 3 h in series [4] was less than 3 ×10⁻⁶ cm/s.
In the same order, the values of `O=C(Nc1cccc(-c2ccccc2)c1)OCc1ccccc1` are more than 30 µM, 7.52, 5 µg/mL (≈ 16.5 µM) and 45 ×10⁻⁶ cm/s.
As to `CC(C)N1C(=O)CN(Cc2ccc(Br)cn2)C1=O`, in series [1], the Ki was less than 5 µM.
`COC(=O)CNCc1ccc(Br)cn1` gave a Ki in series [1] of less than 5 µM.
Consider `O=C(Cc1ccc(-c2ccc3[nH]ccc3c2)cc1)OCc1ccccc1`, for which the affinity in series [1] corresponds to a Ki of 1.1 µM. In series [2], this compound showed a logD of 7.25. Further, the solubility kinetic at 1 h in series [3] was determined as 70 µg/mL (≈ 205 µM). The Papp at 3 h in series [4] came out at 44.5 ×10⁻⁶ cm/s.
With `O=C(O)Cc1ccc(-c2ccc(CN3CC(=O)N(c4ccccc4)C3=O)cc2)cc1`, the Ki in series [1] was 3.6 µM. In series [2], this compound displayed a logD of 2.18. Further, in series [3], the solubility kinetic at 1 h amounted to 174 µg/mL (≈ 436 µM). For the same compound, the Papp at 3 h in series [4] stood at 0.3 ×10⁻⁶ cm/s.
In the same order, the values of `O=C(O)Cc1ccc(-c2ccc(N(C(=O)OCc3ccccc3)C3CCOCC3)cc2)cc1` are more than 30 µM, 3.13, 212 µg/mL (≈ 476 µM) and 2.3 ×10⁻⁶ cm/s.
As for `COC(=O)CNCc1ccc(Br)cc1`, in series [1], the Ki was less than 5 µM.
As for `O=C1CN(Cc2ccc(-c3ccc(C4(C(=O)O)CC4)cc3)cc2)C(=O)N1c1ccccc1`, the inhibition constant Ki in series [1] is more than 30 µM. The same compound registered a pH-dependent lipophilicity (logD) in series [2] of 1.5. In addition, the solubility kinetic at 1 h in series [3] worked out at 195 µg/mL (≈ 457 µM). The Papp at 3 h in series [4] amounted to 1.6 ×10⁻⁶ cm/s.
For `O=C1CN(Cc2ccc(Br)cc2)C(=O)N1c1ccccc1`, in series [1], the Ki was less than 5 µM.
In turn, `CC(C)N1C(=O)CN(Cc2ccc(-c3ccc(CC(=O)O)cc3)cn2)C1=O` showed a Ki in series [1] of 4 µM. Further, in series [2], the logD was -1.38. The solubility kinetic at 1 h in series [3] was 108 µg/mL (≈ 294 µM). For the same compound, the Papp at 3 h in series [4] is less than 1 ×10⁻⁶ cm/s.
Regarding `Cc1noc(-c2ccc(CSCCC(=O)O)cc2)c1NC(=O)OC(C)c1ccccc1Cl` (stereo unspecified), in series [7], the Activity amounted to 16%. For the same compound, the inhibition in series [8] was less than 20%.

Source of the values: ChEMBL document CHEMBL3739319, “Identification of a novel class of autotaxin inhibitors through cross-screening” (Medchemcomm, 2015).
